A word on the Km: it is the concentration of substrate that gives half-maximal velocity.

The target of experiment [1] is T1, ckGL (purified native galactolipase) (Parachlorella kessleri, UniProt A0A2Z5TTR4).
T1 construct: gene chGL; native, purified from C. kessleri cells; N-terminus TALREVATKSEVSEA; ~53 kDa; in Triton X-100
T1 sequence (A0A2Z5TTR4 61-535): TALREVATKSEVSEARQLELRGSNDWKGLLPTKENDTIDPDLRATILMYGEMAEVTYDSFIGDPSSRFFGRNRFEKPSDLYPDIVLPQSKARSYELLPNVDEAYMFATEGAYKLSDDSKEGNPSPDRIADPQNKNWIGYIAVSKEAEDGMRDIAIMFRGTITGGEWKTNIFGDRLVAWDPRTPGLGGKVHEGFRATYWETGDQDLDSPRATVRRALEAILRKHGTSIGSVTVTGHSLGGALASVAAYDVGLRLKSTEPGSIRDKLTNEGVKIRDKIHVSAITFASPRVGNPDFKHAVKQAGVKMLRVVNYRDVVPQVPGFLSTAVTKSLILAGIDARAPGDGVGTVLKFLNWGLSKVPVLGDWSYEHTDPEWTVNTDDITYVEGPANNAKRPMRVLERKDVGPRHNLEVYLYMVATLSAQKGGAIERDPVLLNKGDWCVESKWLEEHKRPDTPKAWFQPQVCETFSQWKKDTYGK
In words: free fatty acid release (NEFA C kit, A550), Lineweaver-Burk linear regression. The experiment is classed as biochemical. As to conditions: pH 6.5 MES-NaOH, 37 °C, 2 mM CaCl2, 0.3% (w/v) Triton X-100; substrate is an acyl-chain mixture; read-out: apparent Km.

Another experiment deals with T2, rckGL (recombinant ckGL) (Parachlorella kessleri, UniProt A0A2Z5TTR4).
T2 construct: gene chGL; His-tag and trigger factor cut off with factor Xa; ~53 kDa
T2 sequence (A0A2Z5TTR4 61-535): T1 sequence (A0A2Z5TTR4 61-535)
In words: free fatty acid release (NEFA C kit, A550), nonlinear regression. The experiment is classed as biochemical. As to conditions: pH 6.5 MES-NaOH, 37 °C, 2 mM CaCl2, 0.3% (w/v) Triton X-100; substrate is an acyl-chain mixture; read-out: apparent Km.

As for “1,2-diacyl-3-O-(α-D-galactosyl1-6)-β-D-galactosyl-sn-glycerol [DGDG]”, the values for the Km (in experiment [1]; on rckGL (recombinant ckGL)) were 1.05 ± 0.48 mM and 540 ± 110 µM, respectively.

For the origin of these results see article PMC5794828, “A novel galactolipase from a green microalga Chlorella kessleri: purification, characterization, molecular cloning, and heterologous expression” (Applied Microbiology and Biotechnology, 2018).
